In ChEMBL document CHEMBL1145541 (J Med Chem, 2008):

Key:
[1] = target: T1, Type-1 angiotensin II receptor A (Rattus norvegicus, UniProt P25095); assay: Displacement of [125I]Sar1,Ile8-Ang2 from AT1 receptor in Wistar rat hepatic membrane; assay type: cell membranes, Liver
T1 sequence (P25095 whole entry): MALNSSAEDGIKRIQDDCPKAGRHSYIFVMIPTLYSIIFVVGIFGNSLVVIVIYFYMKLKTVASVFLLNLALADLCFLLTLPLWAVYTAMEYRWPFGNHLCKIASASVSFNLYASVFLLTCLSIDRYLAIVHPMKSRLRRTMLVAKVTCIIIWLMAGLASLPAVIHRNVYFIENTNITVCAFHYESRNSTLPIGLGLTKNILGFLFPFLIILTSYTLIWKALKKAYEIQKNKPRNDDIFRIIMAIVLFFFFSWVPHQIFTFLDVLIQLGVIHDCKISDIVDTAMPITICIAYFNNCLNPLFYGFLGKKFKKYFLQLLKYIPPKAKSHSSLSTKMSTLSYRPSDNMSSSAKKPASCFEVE

in vitro = conditions: human, Caco-2
Description: Permeability from apical to basolateral side of human Caco-2 cell membrane

[2] = target: T2, Type-1 angiotensin II receptor (Oryctolagus cuniculus, UniProt P34976); assay: Antagonist activity at AT1 receptor in Ang II-contracted rabbit aortic strips after 60 mins; conditions: read-out: pA2 (converted)
T2 sequence (P34976 whole entry): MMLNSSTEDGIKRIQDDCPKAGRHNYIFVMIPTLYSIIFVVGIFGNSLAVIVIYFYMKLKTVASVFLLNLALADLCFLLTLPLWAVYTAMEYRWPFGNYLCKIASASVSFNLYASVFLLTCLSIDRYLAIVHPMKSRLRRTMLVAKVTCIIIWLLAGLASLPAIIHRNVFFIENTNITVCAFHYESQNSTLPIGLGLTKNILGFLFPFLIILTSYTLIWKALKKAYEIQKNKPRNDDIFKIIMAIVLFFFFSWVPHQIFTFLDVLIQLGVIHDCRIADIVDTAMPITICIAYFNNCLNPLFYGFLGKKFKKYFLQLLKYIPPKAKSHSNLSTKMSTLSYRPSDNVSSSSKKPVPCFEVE

[3] = Oral bioavailability in Sprague-Dawley rat at 15 mg/kg; assay type: ADME, organism-based; conditions: in vivo
[4] = Cmax in Sprague-Dawley rat at 5 mg/kg, iv; assay type: ADME, organism-based; parameters: dose 5 mg/kg, route intravenous; conditions: in vivo
[5] = Tmax in Sprague-Dawley rat at 15 mg/kg, po; assay type: ADME, organism-based; parameters: dose 15 mg/kg, route oral; conditions: in vivo
[6] = Cmax in Sprague-Dawley rat at 15 mg/kg, po; assay type: ADME, organism-based; parameters: dose 15 mg/kg, route oral; conditions: in vivo
[7] = AUC in Sprague-Dawley rat at 15 mg/kg, po; assay type: ADME, organism-based; parameters: dose 15 mg/kg, route oral; conditions: plasma
[8] = Half life in Sprague-Dawley rat at 5 mg/kg, iv; assay type: ADME, organism-based; parameters: dose 5 mg/kg, route intravenous; conditions: in vivo
[9] = Half life in Sprague-Dawley rat at 15 mg/kg, po; assay type: ADME, organism-based; parameters: dose 15 mg/kg, route oral; conditions: in vivo
[10] = AUC in Sprague-Dawley rat at 5 mg/kg, iv; assay type: ADME, organism-based; parameters: dose 5 mg/kg, route intravenous; conditions: plasma

| SMILES | IC50 [1] | other results |
| --- | --- | --- |
| CCCCN1C(=O)CC2(CCCC2)C(=O)N1Cc1ccc(-c2ccccc2-c2nn[nH]n2)cc1 | – | Ki [1]: 0.014 µM |
| CCCCn1nc(OCc2ccc(-c3ccccc3-c3nnn[nH]3)cc2)c2cccnc21 | 0.254 µM | – |
| CCCCn1c(=O)c2cc(Cl)cnc2n1Cc1ccc(-c2ccccc2-c2nnn[nH]2)cc1 | 0.076 µM | Papp A→B (in vitro): 108 nm/s |
| CCCn1c(=O)c2cccnc2n1Cc1ccc(-c2ccccc2-c2nnn[nH]2)cc1 | 0.108 µM | – |
| CCCCn1c(=O)c2ccc(OC)nc2n1Cc1ccc(-c2ccccc2-c2nnn[nH]2)cc1 | 0.258 µM | – |
| CCCN1C(=O)c2cccnc2C1Cc1ccc(-c2ccccc2-c2nn[nH]n2)cc1 (centres undefined) | > 3 µM | – |
| CCCCn1c(=O)c2cc(F)cnc2n1Cc1ccc(-c2ccccc2-c2nnn[nH]2)cc1 | 0.07 µM | – |
| CCCCn1c(=O)c2ccc(Cl)nc2n1Cc1ccc(-c2ccccc2-c2nnn[nH]2)cc1 | 0.168 µM | – |
| CCCn1c(=O)c2ccc(C)nc2n1Cc1ccc(-c2ccccc2-c2nnn[nH]2)cc1 | 0.291 µM | – |
| CCCCN1C(=O)C2(CCCC2)CC(=O)N1Cc1ccc(-c2ccccc2-c2nnn[nH]2)cc1 | – | Ki [1]: 0.08 µM |
| O=c1c2cccnc2n(Cc2ccc(-c3ccccc3-c3nn[nH]n3)cc2)n1Cc1ccccc1 | > 3 µM | – |
| CCc1nc2c(C)cc(C)nc2n1Cc1ccc(-c2ccccc2-c2nnn[nH]2)cc1 [L-158809] | 0.0004 µM | – |
| CCCCn1c2nc(Cl)ccc2c(=O)n1Cc1ccc(-c2ccccc2-c2nn[nH]n2)cc1 | 0.461 µM | – |
| CCn1c(=O)c2ccc(C)nc2n1Cc1ccc(-c2ccccc2-c2nnn[nH]2)cc1 | 1.87 µM | – |
| CCC1c2ncccc2C(=O)N1Cc1ccc(-c2ccccc2-c2nn[nH]n2)cc1 (centres undefined) | > 10 µM | – |
| CCCCn1c2ncccc2c(=O)n1Cc1ccc(-c2ccccc2-c2nnn[nH]2)cc1 | 0.039 µM | Papp A→B (in vitro): 36 nm/s; Kb [2]: 0.0148 µM |
| CCCCN1C(=O)C2(CCCC2)C(=O)N1Cc1ccc(-c2ccccc2-c2nn[nH]n2)cc1 | – | Ki [1]: 0.025 µM |
| CCCCn1c(=O)c2ccc(NC)nc2n1Cc1ccc(-c2ccccc2-c2nn[nH]n2)cc1 | 0.124 µM | – |
| CCCCCn1c(=O)c2cccnc2n1Cc1ccc(-c2ccccc2-c2nnn[nH]2)cc1 | 0.053 µM | – |
| CCCC1c2ncccc2C(=O)N1Cc1ccc(-c2ccccc2-c2nn[nH]n2)cc1 (centres undefined) | 0.154 µM | – |
| CCCCn1c2nc(C)ccc2c(=O)n1Cc1ccc(-c2ccccc2-c2nn[nH]n2)cc1 | 0.09 µM | Papp A→B (in vitro): 87 nm/s |

Now from value to molecule, other results behind:

| IC50 [1] | SMILES | other results |
| --- | --- | --- |
| 0.0008 µM | CCCc1nc2c(C)cc(C)nc2n1Cc1ccc(-c2ccccc2-c2nn[nH]n2)cc1 | – |
| 0.095 µM | CCCCC1c2ncccc2C(=O)N1Cc1ccc(-c2ccccc2-c2nn[nH]n2)cc1 (centres undefined) | Papp A→B (in vitro): 56 nm/s |
| 0.6 µM | CCCCn1c(=O)c2ccc(N3CCOCC3)nc2n1Cc1ccc(-c2ccccc2-c2nnn[nH]2)cc1 | – |
| 0.081 µM | CCCCn1c(=O)c2ccc(C)nc2n1Cc1ccc(-c2ccccc2-c2nnn[nH]2)cc1 | – |
| > 10 µM | O=C1c2cccnc2CN1Cc1ccc(-c2ccccc2-c2nn[nH]n2)cc1 | – |
| 0.598 µM | CCCCn1c(=O)c2ccccc2n1Cc1ccc(-c2ccccc2-c2nnn[nH]2)cc1 | – |
| 0.427 µM | CCCCn1c(=O)c2cc(F)c(Cl)nc2n1Cc1ccc(-c2ccccc2-c2nnn[nH]2)cc1 | – |
| 0.124 µM | CC(C)CCn1c(=O)c2cccnc2n1Cc1ccc(-c2ccccc2-c2nnn[nH]2)cc1 | – |
| 2.3 µM | CC(C)Cn1c(=O)c2cccnc2n1Cc1ccc(-c2ccccc2-c2nn[nH]n2)cc1 | – |
| 0.114 µM | CCCCn1nc(OCc2ccc(-c3ccccc3-c3nn[nH]n3)cc2)c2cccnc2c1=O | – |
| 0.0069 µM | CCc1nc2c(C)cc(C)nc2n1Cc1ccc(-c2c(-c3nnn[nH]3)cnc3ccccc23)cc1 | – |
| 0.146 µM | CCCn1nc(OCc2ccc(-c3ccccc3-c3nnn[nH]3)cc2)c2cccnc21 | – |
| 0.018 µM | CCCCn1c(=O)c2cccnc2n1Cc1ccc(-c2ccccc2-c2nn[nH]n2)cc1 | bioavailability [3]: 80%; Papp A→B (in vitro): 17.8 nm/s; Cmax [4]: 6.32 µg/mL; Tmax [5]: 30 min; Cmax [6]: 4.1 µg/mL; AUC [7]: 3.38 µg·h/mL; half-life [8]: 60 min; Kb [2]: 0.0105 µM; half-life [9]: 54 min; AUC [10]: 1.41 µg·h/mL |
